# Measurements: patent US20230167058A1, “GPX4 COMPOUNDS AND COMPOSITIONS AND METHODS OF TREATMENT USING SAME” (THE TRUSTEES OF COLUMBIA UNIVERSITY IN THE CITY OF NEW YORK, priority 2020, published 2023)
# Residue numbers refer to the chain shown, from its start. “Also recorded” adds a separate entry of the source.
# Key:
# GPX4 = target: T1, GPX4 (Homo sapiens, UniProt P36969); experiment: GPX4-specific enzymatic activity assay (LC-MS substrate/product, NADPH-coupled); type: biochemical
# T1 sequence (P36969 1-170 isoform P36969-2): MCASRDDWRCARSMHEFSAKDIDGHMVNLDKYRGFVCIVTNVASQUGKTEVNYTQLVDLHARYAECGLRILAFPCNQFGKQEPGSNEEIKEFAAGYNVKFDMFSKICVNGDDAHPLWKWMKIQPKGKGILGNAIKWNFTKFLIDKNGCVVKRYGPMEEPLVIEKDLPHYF
# From the text: These x-ray structures enabled further optimization of current inhibitors and the design of novel inhibitors targeting various binding sites on GPX4. Therefore, we applied a strategy of computer-facilitated design, based on MD simulation (Desmond) and Glide docking (Schrödinger Suite), and experimental high-throughput screening of a lead-optimized compound library of 10,000 compounds (FIGS. 6A-6E). All candidates were first evaluated by thermal denaturation assay and microscale thermophoresis (MST) to validate binding to GPX4 (Table 1). Surface plasmon resonance (SPR) and isothermal titration calorimetry (ITC) were then applied to precisely measure their binding kinetics and affinities, while ^1H-^15N heteronuclear single-quantum coherence (HSQC) NMR spectroscopy informed us of binding sites. We optimized two GPX4-specific activity assays to examine enzymatic inhibitory effects of hit compounds—LC-MS-based substrate/product monitoring and an NADPH-coupled assay. […] Some L880 analogues were also synthesized and tested (Table 2).
# GPX4^U46C [1] = target: T2, GPX4^U46C (Homo sapiens, UniProt P36969, U73C); experiment: Intact protein MALDI MS analysis, GPX4^U46C; type: binding; settings: protein preincubated with excess inhibitor
# T2 construct: His6 (N, cleaved yes); made in house; host or cells: E. coli BL21-Gold (DE3), M9 minimal medium with 15NH4Cl
# T2 sequence (P36969 33-197 U73C): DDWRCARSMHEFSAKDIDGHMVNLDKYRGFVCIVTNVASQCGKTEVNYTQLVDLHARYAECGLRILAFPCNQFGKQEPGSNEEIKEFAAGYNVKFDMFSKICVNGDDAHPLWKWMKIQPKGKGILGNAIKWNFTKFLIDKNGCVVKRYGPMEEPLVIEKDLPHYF
# Experimental: (§1) GPX4^U46C or GPX4^AllCys(−)-A46C protein was pre-incubated with DMSO control or the inhibitor to be tested prior to MALDI MS analysis: 50 μM GPX4 protein was incubated with 500 μM inhibitors in FPLC buffer (100 mM Tris pH 8.0, 300 mM NaCl, and 3 mM TCEP) with 5% DMSO at RT for 1 hour before transferring to 4° C. overnight.
# (§2) 1 μl of the ligand-free protein (pre-incubated with DMSO) or protein-inhibitor complex (pre-incubated with the inhibitor to be tested) was mixed with 9 μl of 10 mg/ml sinapinic acid in the matrix solution (70:30 water/acetonitrile, with 0.1% TFA). 1.0 μl of the final mix was deposited onto the target carrier and allowed to air dry. MALDI spectrum was recorded using Bruker ultrafleXtreme MALDI-TOF instrument. The range of m/z detection and suppression was adjusted to accommodate the molecular weight of target protein. 2000 Hz and 50% intensity was applied for the laser setting. For each sample, five cumulative spectra were collected and the sum was recorded for analysis. All MALDI spectra of protein-inhibitor complex were compared with ligand-free protein to determine the mass shift. Mass shifts were aligned with the mass of potential staying group of each inhibitor to conclude covalent binding.
# GPX4^U46C [2] = target: T2, GPX4^U46C; experiment: 1H,15N-HSQC-NMR of 15N-labeled GPX4^U46C; type: binding
# Experimental: Uniformly ^15N-labeled GPX4^U46C protein with N-terminal His6 tag was prepared. The GPX4^U46C construct was expressed in E. coli BL21-Gold (DE3) cells (Stratagene) growing at 37° C. in M9 minimal medium supplemented with […] ampicillin, 2 mM MgSO4, […] CaCl2, 1× trace metals, 1×RPMI 1640 vitamin stock (Sigma-Aldrich, #R7256), […] biotin, […] thiamine hydrochloride, 4 g/L glucose, and 3 g/L ^15NH4Cl as the sole nitrogen source. The following induction, lysis, and protein purification was the same as for the non-isotope-labeled His-tagged GPX4^U46C described above, except the N-terminal His6 tag was removed by adding 5 U/mg thrombin before FPLC purification. The thrombin reaction was after a buffer exchange to remove imidazole, which otherwise would inhibit thrombin, and was allowed to proceed overnight at 4° C.
# Then the protein solution was concentrated to 50 μM before testing. For HSQC of GPX4 with other inhibitors, 50 μM ^15N-labeled GPX4 was preincubated with 800 μM inhibitor to be tested for […] at room temperature in buffer (100 mM MES, 5 mM TCEP, pH 6.5). D20 (10%) was then added for the field frequency lock. The ^1H-^15N HSQC spectra were collected on Bruker Avance III 500 Ascend (500 MHz) spectrometers (Columbia University) at 298K. The ^1H carrier frequency was positioned at the water resonance. The ^15N carrier frequency was positioned at 115 ppm. The spectral width in the ^1H dimension was 7,500 Hz and the width in the ^15N dimension was 1,824.6 Hz. Suppression of water signal was accomplished using the WATERGATE sequence. Heteronuclear decoupling was accomplished using GARP decoupling scheme.
# GPX4^allCys(−) A46C = target: T3, GPX4^allCys(−) A46C (Homo sapiens, UniProt P36969, C102S/C134A/C175A/C37A/C64S/C93A/U73C); experiment: Intact protein MALDI MS analysis, GPX4^allCys(−) A46C; type: binding; settings: only cys46 present
# T3 construct: His (cleaved yes); made in house; host or cells: E. coli BL21-Gold (DE3)
# T3 sequence (P36969 33-197 C37A/C64S/U73C/C93A/C102S/C134A/C175A): T2 sequence (P36969 33-197 U73C) with C5A, C32S, C61A, C70S, C102A, C143A
# Experimental: as §1, §2
SMILES,GPX4 enzymatic assay (GPX4),covalent binding to GPX4^U46C by intact protein MALDI MS (GPX4^U46C [1]),binding mode by HSQC NMR (GPX4^U46C [2]),Binding site (GPX4^U46C [2]; Table 1),HSQC assay (GPX4^U46C [2]; Table 1),covalent modification of cys46 (mass shift) by MALDI MS (GPX4^allCys(−) A46C)
COc1cccc2[nH]c(C(=O)n3ccnc3)cc12 [LOC1886],suppression of its enzymatic activity; also recorded: positive,covalently bound,non-covalently binds to the RSL3-binding site; also recorded: strongly interacted with the cys66 binding site,Allosteric Site 1,positive,
"COC(=O)c1ccc([C@@H]2c3[nH]c4ccccc4c3C[C@@H](C(=O)OC)N2C(=O)CCl)cc1 [RSL3, (1S, 3R)-RSL3]",,1:1 covalent binding,global conformational change induced by binding of RSL3 to cys66,,,no mass shift
